Calls of active or inactive are those of the source. The rule behind the calls is not given here.
What was measured:
Drosophila melanogaster [1] = experiment: Toxicity in Drosophila melanogaster third instar larvae assessed as change in larvae development at 40 uM administered through feeding measured after 5 days; assay type: organism-based; conditions: in vivo, po, 120 h
Drosophila melanogaster [2] = experiment: Toxicity in Drosophila melanogaster third instar larvae assessed as change in fecundity at 40 uM administered through feeding measured after 5 days; assay type: organism-based; conditions: in vivo, po, 120 h
COLO 205 [3] = experiment: Cytotoxicity against human COLO205 cells assessed as reduction in cell viability at 0.5 to 4 uM after 48 hrs by MTT assay; assay type: functional, cell-based
Drosophila melanogaster [4] = experiment: Downregulation of miR-14 expression in Drosophila melanogaster third instar larval wing imaginal disc assessed as increase in EGFP expression at 40 uM administered through feeding measured after 5 days by confocal microscopy; assay type: functional, organism-based
Drosophila melanogaster [5] = experiment: Downregulation of miR-13a expression in Drosophila melanogaster third instar larval wing imaginal disc assessed as increase in EGFP expression at 40 uM administered through feeding measured after 5 days by confocal microscopy; assay type: functional, organism-based
Drosophila melanogaster [6] = experiment: Downregulation of bantam microRNA expression in Drosophila melanogaster third instar larval wing imaginal disc assessed as increase in EGFP expression at 40 uM administered through feeding measured after 5 days by confocal microscopy; assay type: functional, organism-based
COLO 205 [7] = experiment: Downregulation of HDAC-6 protein expression in human COLO205 cells at 4 uM after 24 hrs by Western blot analysis; assay type: functional, cell-based
COLO 205 [8] = experiment: Downregulation of HDAC-3 protein expression in human COLO205 cells at 4 uM after 24 hrs by Western blot analysis; assay type: functional, cell-based
COLO 205 [9] = experiment: Cell cycle arrest in human COLO205 cells assessed as accumulation at G2/M phase at 4 uM after 24 hrs by propidium iodide staining-based flow cytometry (reference value: 22%); assay type: functional
COLO 205 [10] = experiment: Cell cycle arrest in human COLO205 cells assessed as accumulation at S phase at 4 uM after 24 hrs by propidium iodide staining-based flow cytometry (reference value: 7%); assay type: functional
COLO 205 [11] = experiment: Cell cycle arrest in human COLO205 cells assessed as accumulation at G1 phase at 4 uM after 24 hrs by propidium iodide staining-based flow cytometry (reference value: 71%); assay type: functional
Drosophila melanogaster [12] = experiment: Upregulation of Hid expression in Drosophila melanogaster third instar larval wing imaginal disc at 10 to 100 uM administered through feeding measured after 5 days by semi quantitative RT-PCR analysis relative to control; assay type: functional
Drosophila melanogaster [13] = experiment: Effect on Ago-1 expression in Drosophila melanogaster third instar larval wing imaginal disc at 10 to 100 uM administered through feeding measured after 5 days by semi quantitative RT-PCR analysis; assay type: functional, organism-based
Drosophila melanogaster [14] = experiment: Downregulation of Dicer-1 expression in Drosophila melanogaster third instar larval wing imaginal disc at 10 to 100 uM administered through feeding measured after 5 days by semi quantitative RT-PCR analysis relative to control; assay type: functional
Drosophila melanogaster [15] = experiment: Downregulation of Pasha expression in Drosophila melanogaster third instar larval wing imaginal disc at 10 to 100 uM administered through feeding measured after 5 days by semi quantitative RT-PCR analysis relative to control; assay type: functional
Drosophila melanogaster [16] = experiment: Downregulation of Drosha expression in Drosophila melanogaster third instar larval wing imaginal disc at 10 to 100 uM administered through feeding measured after 5 days by semi quantitative RT-PCR analysis relative to control; assay type: functional
Drosophila melanogaster [17] = experiment: Downregulation of miR-13a expression in Drosophila melanogaster third instar larval wing imaginal disc assessed as increase in EGFP expression at 40 uM administered through feeding measured after 5 days by confocal microscopy relative to control; assay type: functional
Drosophila melanogaster [18] = experiment: Downregulation of bantam microRNA expression in Drosophila melanogaster third instar larval wing imaginal disc assessed as increase in EGFP expression at 40 uM administered through feeding measured after 5 days by confocal microscopy relative to control; assay type: functional
COLO 205 [19] = experiment: Cytotoxicity against human COLO205 cells assessed as decrease in AGO-2 expression at 4 uM after 24 hrs by Western blot analysis; assay type: functional, cell-based
COLO 205 [20] = experiment: Cytotoxicity against human COLO205 cells assessed as decrease in AGO-1 expression at 4 uM after 24 hrs by Western blot analysis; assay type: functional, cell-based
COLO 205 [21] = experiment: Cytotoxicity against human COLO205 cells assessed as decrease in miR-542-5p level by RT-PCR analysis; assay type: functional, cell-based
COLO 205 [22] = experiment: Cytotoxicity against human COLO205 cells assessed as increase in miR-145 level by RT-PCR analysis; assay type: functional, cell-based
COLO 205 [23] = experiment: Cytotoxicity against human COLO205 cells assessed as miR-450 expression by RT-PCR analysis; assay type: functional, cell-based
COLO 205 [24] = experiment: Induction of apoptosis in human COLO205 cells assessed as chromatin condensation at 4 uM after 24 hrs by Hoechst 33342-staining based confocal microscopy; assay type: functional, cell-based
COLO 205 [25] = experiment: Induction of apoptosis in human COLO205 cells assessed as cellular blebbing at 4 uM after 24 hrs by Hoechst 33342-staining based confocal microscopy; assay type: functional, cell-based
COLO 205 [26] = experiment: Induction of apoptosis in human COLO205 cells assessed as cellular shrinkage at 4 uM after 24 hrs by Hoechst 33342-staining based confocal microscopy; assay type: functional, cell-based
COLO 205 [27] = experiment: Induction of apoptosis in human COLO205 cells assessed as DNA fragmentation at 4 uM by tunel assay; assay type: functional, cell-based
COLO 205 [28] = experiment: Induction of apoptosis in human COLO205 cells assessed as caspase 3 expression at 4 uM after 24 hrs by fluorimetric assay in presence of Z-DEVD-FMK; assay type: functional, cell-based
COLO 205 [29] = experiment: Induction of apoptosis in human COLO205 cells assessed as caspase 9 expression at 4 uM after 24 hrs by fluorimetric assay in presence of Z-LEHD-FMK; assay type: functional, cell-based
COLO 205 [30] = experiment: Induction of apoptosis in human COLO205 cells assessed as increase in caspase 3 expression at 4 uM after 24 hrs by fluorimetric assay relative to control; assay type: functional
COLO 205 [31] = experiment: Induction of apoptosis in human COLO205 cells assessed as increase in caspase 9 expression at 4 uM after 24 hrs by fluorimetric assay relative to control; assay type: functional
COLO 205 [32] = experiment: Cytotoxicity against human COLO205 cells assessed as Dicer-1 expression at 4 uM after 24 hrs by Western blot analysis; assay type: functional, cell-based
Drosophila melanogaster [33] = experiment: Downregulation of HDAC-1 mRNA expression in Drosophila melanogaster third instar larval wing imaginal disc at 10 to 100 uM administered through feeding measured after 5 days by semi quantitative RT-PCR analysis; assay type: functional, organism-based
Drosophila melanogaster [34] = experiment: Downregulation of Sir2 mRNA expression in Drosophila melanogaster third instar larval wing imaginal disc at 10 to 100 uM administered through feeding measured after 5 days by semi quantitative RT-PCR analysis; assay type: functional, organism-based
Drosophila melanogaster [35] = experiment: Downregulation of HDAC6 mRNA expression in Drosophila melanogaster third instar larval wing imaginal disc at 10 to 100 uM administered through feeding measured after 5 days by semi quantitative RT-PCR analysis; assay type: functional, organism-based
Drosophila melanogaster [36] = experiment: Downregulation of HDAC4 mRNA expression in Drosophila melanogaster third instar larval wing imaginal disc at 10 to 100 uM administered through feeding measured after 5 days by semi quantitative RT-PCR analysis; assay type: functional, organism-based
Drosophila melanogaster [37] = experiment: Downregulation of HDAC3 mRNA expression in Drosophila melanogaster third instar larval wing imaginal disc at 10 to 100 uM administered through feeding measured after 5 days by semi quantitative RT-PCR analysis; assay type: functional, organism-based
Drosophila melanogaster [38] = experiment: Induction of apoptosis in Drosophila melanogaster third instar larval wing imaginal disc assessed as Dcp-1 activation at 10 to 100 uM administered through feeding measured after 5 days by semi quantitative RT-PCR analysis relative to control; assay type: functional
Drosophila melanogaster [39] = experiment: Induction of apoptosis in Drosophila melanogaster third instar larval wing imaginal disc assessed as Dronc activation at 10 to 100 uM administered through feeding measured after 5 days by semi quantitative RT-PCR analysis relative to control; assay type: functional
Drosophila melanogaster [40] = experiment: Downregulation of DIAP1 expression in Drosophila melanogaster third instar larval wing imaginal disc at 10 to 100 uM administered through feeding measured after 5 days by semi quantitative RT-PCR analysis; assay type: functional
Drosophila melanogaster [41] = experiment: Upregulation of Grim expression in Drosophila melanogaster third instar larval wing imaginal disc at 10 to 100 uM administered through feeding measured after 5 days by semi quantitative RT-PCR analysis relative to control; assay type: functional
Drosophila melanogaster [42] = experiment: Upregulation of Reaper expression in Drosophila melanogaster third instar larval wing imaginal disc at 10 to 100 uM administered through feeding measured after 5 days by semi quantitative RT-PCR analysis relative to control; assay type: functional

c1ccc(-c2nc3sc4ccccc4n3c2CN2CCCC2)cc1
Activity (Drosophila melanogaster [1]): Non-toxic | Activity (Drosophila melanogaster [2]): Non-toxic | Activity (COLO 205 [3]): Active

CCOc1ccc2c(c1)sc1nc(-c3ccc(Cl)cc3)c(CN3CCN(c4ccccn4)CC3)n12
Activity (Drosophila melanogaster [4]): inactive | Activity (Drosophila melanogaster [5]): Active | Activity (Drosophila melanogaster [6]): Active | Activity (Drosophila melanogaster [1]): Non-toxic | Activity (Drosophila melanogaster [2]): Non-toxic | Activity (COLO 205 [3]): Active

Cc1ccc2c(c1)sc1nc(-c3ccccc3)c(CN3CCCC3)n12
Activity (Drosophila melanogaster [1]): Non-toxic | Activity (Drosophila melanogaster [2]): Non-toxic | Activity (COLO 205 [3]): Active

Fc1ccc2c(c1)sc1nc(-c3ccccc3)c(CN3CCCC3)n12
Activity (Drosophila melanogaster [1]): Non-toxic | Activity (Drosophila melanogaster [2]): Non-toxic | Activity (COLO 205 [3]): Active

CCN(CC)CCOc1cccc(-c2cn3c(n2)sc2ccccc23)c1.Cl.Cl
Activity (COLO 205 [7]): Active | Activity (COLO 205 [8]): Active | Activity (COLO 205 [9]): 73% | Activity (COLO 205 [10]): 5% | Activity (COLO 205 [11]): 22%

CCOc1ccc2c(c1)sc1nc(-c3ccccc3)c(CN3CCCC3)n12
Activity (Drosophila melanogaster [1]): Non-toxic | Activity (Drosophila melanogaster [2]): Non-toxic | Activity (COLO 205 [3]): Active

Clc1ccc(-c2nc3sc4ccccc4n3c2CN2CCCC2)cc1
Activity (Drosophila melanogaster [1]): Non-toxic | Activity (Drosophila melanogaster [2]): Non-toxic | Activity (COLO 205 [3]): Active

Clc1ccc(-c2nc3sc4ccccc4n3c2CN2CCN(c3ccccn3)CC2)cc1
fold change (FC) (Drosophila melanogaster [12]): 4 | Activity (Drosophila melanogaster [13]): inactive | fold change (FC) (Drosophila melanogaster [14]): 3 | fold change (FC) (Drosophila melanogaster [15]): 2 | fold change (FC) (Drosophila melanogaster [16]): 4 | fold change (FC) (Drosophila melanogaster [17]): 3 | fold change (FC) (Drosophila melanogaster [18]): 5 | Activity (Drosophila melanogaster [4]): inactive | Activity (Drosophila melanogaster [5]): Active | Activity (Drosophila melanogaster [6]): Active | Activity (Drosophila melanogaster [1]): Non-toxic | Activity (Drosophila melanogaster [2]): Non-toxic | Activity (COLO 205 [7]): Active | Activity (COLO 205 [8]): Active | Activity (COLO 205 [19]): Active | Activity (COLO 205 [20]): Active | Activity (COLO 205 [21]): Active | Activity (COLO 205 [22]): Active | Activity (COLO 205 [23]): inactive | Activity (COLO 205 [24]): Active | Activity (COLO 205 [25]): Active | Activity (COLO 205 [26]): Active | Activity (COLO 205 [27]): Active | Activity (COLO 205 [28]): inactive | Activity (COLO 205 [29]): inactive | fold change (FC) (COLO 205 [30]): 3 | fold change (FC) (COLO 205 [31]): 2.5 | Activity (COLO 205 [9]): 15% | Activity (COLO 205 [10]): 5% | Activity (COLO 205 [32]): inactive | Activity (COLO 205 [3]): Active | Activity (COLO 205 [11]): 80% | Activity (Drosophila melanogaster [33]): inactive | Activity (Drosophila melanogaster [34]): Active | Activity (Drosophila melanogaster [35]): Active | Activity (Drosophila melanogaster [36]): Active | Activity (Drosophila melanogaster [37]): Active | fold change (FC) (Drosophila melanogaster [38]): 3 | fold change (FC) (Drosophila melanogaster [39]): 3 | fold change (FC) (Drosophila melanogaster [40]): 5 | fold change (FC) (Drosophila melanogaster [41]): 3 | fold change (FC) (Drosophila melanogaster [42]): 2.5
